From paper PMC7230232, “Secondary Metabolites from the Culture of the Marine-derived Fungus Paradendryphiella salina PC 362H and Evaluation of the Anticancer Activity of Its Metabolite Hyalodendrin” (Marine Drugs, 2020)
“And” between values parts separate entries of the source, which are not always exact repeats. Equal entries are not always repeated. Where two headings read alike, the source gives them in different places.

Experiments:
[1] = test system: MDA-MB-231; test: MTT cell viability assay, MDA-MB-231; format: cell-based; conditions: Homo sapiens, breast, mesenchymal, invasive
Protocol: (§1) Cellular viability was determined by the MTT (methylthiazolyldiphenyl-tetrazolium bromide) assay. Briefly, cells were exposed to the indicated concentrations of crude extracts or compounds 1–4 for five doubling times and then incubated for 3 h at 37 °C with MTT. Formazan crystals were then dissolved in DMSO and optical density measured at 570 nm in a microplate reader. The half-maximal inhibitory concentration (IC50) was determined. Values given for crude extracts are averages of at least two experiments done in duplicate. IC50 values calculated for the four isolated compounds and the commercially available 4-hydroxy-tamoxifen (Sigma-Aldrich) are averages of at least three experiments done in duplicate.

[2] = test system: LS513; test: MTT cell viability assay, LS513; format: cell-based; conditions: Homo sapiens, LS-513; colon
Protocol: as §1

[3] = test system: HCT116 5FU; test: MTT cell viability assay, HCT116 5FU; format: cell-based; conditions: Homo sapiens, HCT-116; colon; 5-fluorouracil resistant
Protocol: as §1

[4] = target: T1, thioredoxin system (Trr1+Trx1) (Saccharomyces cerevisiae, UniProt P22217); test: In vitro reduction by the reconstituted thioredoxin system (NADPH consumption); format: biochemical; conditions: versus ACN control
T1 construct: made in house
T1 sequence (P22217 whole entry): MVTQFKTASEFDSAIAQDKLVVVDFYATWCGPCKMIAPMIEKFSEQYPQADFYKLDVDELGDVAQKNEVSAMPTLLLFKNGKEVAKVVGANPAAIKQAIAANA
Protocol: Thioredoxin 1 (Trx1) and NADPH-dependent thioredoxin reductase (Trr1) from Saccharomyces cerevisiae were cloned and produced as described previously. Thioredoxin activity was measured spectrophotometrically (Uvikon XS; Secomam) in 1 mL cuvette by following NADPH consumption at 340 nm over 2 min. The reaction was performed in 100 µM NADPH, 246 nM of Trr1 in 30 mM Tris-HCl buffer (pH 7.9) and in the presence or not of 65 nM of Trx1. The reaction was initiated by adding 10 µL of 50 mM of 3 in acetonitrile or 10 µL of acetonitrile (ACN, Control experiment). For each condition, NADPH consumption experiments were performed in triplicate and results were represented as the mean ± SD. The significance of the results was evaluated by Student’s t-test.

[5] = test system: MCF7 cells; test: MTT cell viability assay, MCF7; format: cell-based, human; conditions: Homo sapiens
Protocol: as §1

[6] = test system: MCF7-Sh-WISP2 cells; test: Human cell stress array and immunoblotting; format: cell-based
Protocol: MCF7-Sh-WISP2 cells were treated for 48 h with 5.7 µM of 3 (corresponding to 3.8 × 10^−5 nmol of drug per cell), harvested and lysed for 30 min on ice with 0.4 mL of cell lysis buffer containing a cocktail of protease inhibitors. The lysates were centrifuged at 14,000 g for 5 min at 4 °C. Human cell stress proteins were detected using the Proteome Profiler human cell stress array kit (# ARY018, R&D systems) according to the manufacturer’s instructions. The chemiluminescent images of the slide were captured with the Chemidoc system (Biorad).
(§2) MCF7-Sh-WISP2 cells were incubated for 72 h at 37 °C with 2.4 µM of 3 (corresponding to 3.8 × 10^−5 nmol of drug per cell). Cells were then washed twice with Phosphate-Buffer Saline (PBS) 1X and lysed for 30 min in RIPA buffer (150 mM NaCl, 1.0% IGEPAL® CA-630, 0.5% sodium deoxycholate, 0.1% SDS, 50 mM Tris, pH 8.0). Proteins (20 µg) were resolved on sodium dodecyl sulfate polyacrylamide gel (SDS/PAGE) (12%) and blotted onto nitrocellulose membranes (Bio-Rad). […] Antigens were detected using an enhanced chemiluminescence kit (Biorad) using the Chemidoc system (Biorad). Protein quantitation was calculated using Image Lab software developed by Bio-Rad.

[7] = test system: HT29 oxa; test: MTT cell viability assay, HT29 oxa; format: cell-based; conditions: Homo sapiens, HT-29; colon; oxaliplatin resistant
Protocol: as §1

[8] = test system: SW48; test: MTT cell viability assay, SW48; format: cell-based; conditions: Homo sapiens, colon
Protocol: as §1

[9] = test system: HCT116 SN-38; test: MTT cell viability assay, HCT116 SN-38; format: cell-based; conditions: Homo sapiens, HCT-116; colon; SN-38 resistant
Protocol: as §1

[10] = test system: C19; test: MTT cell viability assay, C19 immortalized fibroblasts; format: cell-based; conditions: Homo sapiens, Fibroblast; normal; fibroblastic
Protocol: as §1

[11] = test system: RKO; test: MTT cell viability assay, RKO; format: cell-based; conditions: Homo sapiens, colon
Protocol: as §1

[12] = test system: MCF7-Sh-WISP2 cells; test: MTT cell viability assay, MCF7-Sh-WISP2; format: cell-based, human; conditions: for IC50: Homo sapiens
Protocol: as §1

[13] = test system: LOVO; test: MTT cell viability assay, LOVO; format: cell-based; conditions: Homo sapiens, colon
Protocol: as §1

[14] = test system: HCT116 oxa; test: MTT cell viability assay, HCT116 oxa; format: cell-based; conditions: Homo sapiens, HCT-116; colon; oxaliplatin resistant
Protocol: as §1

[15] = test system: HT29 SN-38; test: MTT cell viability assay, HT29 SN-38; format: cell-based; conditions: Homo sapiens, HT-29; colon; SN-38 resistant
Protocol: as §1

[16] = test system: MCF7-Sh-WISP2 cells; test: Intracellular signaling array and immunoblotting; format: cell-based, human
Protocol: MCF7-Sh-WISP2 cells were treated for 48 h with 2.8 µM of 3 (corresponding to 3.8 × 10^−5 nmol of drug per cell), harvested and lysed on ice for 5 min with 0.5 mL of cell lysis buffer containing a cocktail of protease inhibitors. The lysates were centrifuged at 14,000 g for 1 min at 4 °C. Intracellular signaling molecules were detected using a PathScan® intracellular signaling array kit (# 7323, Cell Signaling Technology) according to the manufacturer’s procedure. The chemiluminescent images of the slide were captured with the Chemidoc system (Biorad).
as §2

[17] = test system: SW480; test: MTT cell viability assay, SW480; format: cell-based; conditions: Homo sapiens, colon
Protocol: as §1

[18] = test system: HeLa; test: MTT cell viability assay, HeLa; format: cell-based; conditions: Homo sapiens, cervix
Protocol: as §1

[19] = test system: HT29 5FU; test: MTT cell viability assay, HT29 5FU; format: cell-based; conditions: Homo sapiens, HT-29; colon; 5-fluorouracil resistant
Protocol: as §1

[20] = test system: HT29; test: MTT cell viability assay, HT29; format: cell-based; conditions: Homo sapiens, HT-29; colon
Protocol: as §1

`CN1C(=O)[C@@]2(Cc3ccccc3)SS[C@]1(CO)C(=O)N2C` [Compound 3, (3R, 6R) Hyalodendrin] was tested, and the IC50 [1] was 132 ± 13.4 nM, the IC50 [2] was 78 ± 9.3 nM and the IC50 [3] was 72 ± 10.9 nM. For the same compound, the NADPH consumption increase [4] was ~14 folds, the IC50 ([5]; MCF7, read-out: IC50 MCF7, breast, epithelial) was 216 ± 6 nM and the IC50 ([5]; MCF7, read-out: IC50 MCF7, pure compounds, MTT) was 0.07 µg/mL and 220 nM. For the same compound, the “phosphorylation of p53 on serine 46” value ([6]; 5.7 µM for 48 h (array), 2.4 µM for 72 h (Western blot)) was “decreased phosphorylation”, the BAX expression ([6]; Western blot, 2.4 µM for 72 h) was “decreased expression” and the “expression levels of HSP60 and HSP70 proteins” value ([6]; array, 5.7 µM for 48 h) was “marked decrease”. The “p21 protein expression levels” value ([6]; array, 5.7 µM for 48 h) was “no increase”, the IC50 [7] was 142 ± 2.6 nM and the IC50 [8] was 149 ± 15.5 nM. For the same compound, the IC50 [9] was 43.8 ± 4.2 nM, the IC50 [10] was 252 ± 20.5 nM and the IC50 [11] was 74.3 ± 1.9 nM. For the same compound, the IC50 ([12]; read-out: IC50 MC7-Sh-WISP2) was 142 ± 3 nM, the IC50 ([12]; read-out: IC50 MCF7-Sh-WISP2) was 0.046 µg/mL and 140 nM and the “IC50 for MCF7-Sh-WISP2 expressed as amount of 3 per cell” value ([12]; corresponds to IC50 of 140 nM in the viability assay) was 3.8 × 10^−5 nmol of 3 per cell. The IC50 [13] was 73.4 ± 16.4 nM, the IC50 [14] was 25.7 ± 4.2 nM and the IC50 [15] was 93.8 ± 13.6 nM. The “phosphorylation of p53 on serine 15” value ([16]; 2.8 µM for 48 h (array), 2.4 µM for 72 h (Western blot)) was “increased phosphorylation”, the “PRAS40 protein expression levels” value ([16]; Western blot, 2.4 µM for 72 h) was “general decrease” and the “cleavage of PARP or caspase-3” value ([16]; signaling array) was “no cleavage”. It also gave an IC50 [17] of 164 ± 11 nM, an IC50 [18] of 69 ± 9.9 nM and an IC50 [19] of 147 ± 10.2 nM. It also gave an IC50 [20] of 58 ± 13.7 nM.
